Measurements reported in the supplement of paper PMC6331611.
≈ marks a conversion by molar mass, not a printed value. Structures can show the parent of a compound that is named as a salt.

Experiments:
[1] = test system: Salmonella enterica serovar Typhimurium SL1344
[2] = test system: Salmonella enterica serovar Typhimurium SL1344; assay: intracellular MIC (10-fold luminescence reduction); higher = less potent; conditions: RAW264.7 macrophages
[3] = test system: RAW264.7; assay: cytotoxicity (LDH release relative to maximum lysis); higher = more toxic; conditions: 50 µM; 2 h

| MIC ([1]; LPM pH 5.8) | MIC ([1]; MHB) | MIC ([1]; MOPS glucose minimal medium) | intracellular MIC [2] | SMILES | cytotoxicity [3] |
| --- | --- | --- | --- | --- | --- |
| ≤ 0.78 µM | 25 µM (≈ 4.75 µg/mL) | 6.25 µM (≈ 1.19 µg/mL) | > 50 µM | O=[N+]([O-])c1ccc(O)c2ncccc12 [NITROXOLINE] | 14.6% |
| 1.56 µM (≈ 0.498 µg/mL) | ≤ 0.78 µM | ≤ 0.78 µM | 1.56 µM | CCn1cc(C(=O)O)c(=O)c2cc(F)c(N3CCNCC3)cc21 [NORFLOXACIN] | 8.22% |
| 1.17 µM | > 50 µM | > 50 µM | > 50 µM | CO[C@@H]1[C@@H](OC(N)=O)[C@@H](O)[C@H](Oc2ccc3c(O)c(NC(=O)c4ccc(O)c(CC=C(C)C)c4)c(=O)oc3c2C)OC1(C)C [NOVOBIOCIN SODIUM] | 7.98% |
| > 50 µM | > 50 µM | > 50 µM | 1.56 µM | COc1ccc(C(=O)c2ccccc2)c(O)c1 [OXYBENZONE] | 6.44% |
| ≤ 0.78 µM | 6.25 µM (≈ 2.88 µg/mL) | 12.5 µM (≈ 5.76 µg/mL) | 6.25 µM | CN(C)[C@@H]1C(O)=C(C(N)=O)C(=O)[C@@]2(O)C(O)=C3C(=O)c4c(O)cccc4[C@@](C)(O)[C@H]3[C@H](O)[C@@H]12 [OXYTETRACYCLINE] | 15.7% |
| ≤ 0.78 µM | ≤ 0.78 µM | ≤ 0.78 µM | ≤ 0.78 µM | C[C@H]1COc2c(C3(N)CC3)c(F)cc3c(=O)c(C(=O)O)cn1c23 [PAZUFLOXACIN MESYLATE] | 12.2% |
| ≤ 0.78 µM | ≤ 0.78 µM | ≤ 0.78 µM | 1.56 µM | CCn1cc(C(=O)O)c(=O)c2cc(F)c(N3CCN(C)CC3)cc21 [PEFLOXACINE MESYLATE] | 20.7% |
| > 50 µM | > 50 µM | > 50 µM | ≤ 0.78 µM | CNC[C@H](O)c1cccc(O)c1 [PHENYLEPHRINE HYDROCHLORIDE] | 6.89% |
| > 50 µM | > 50 µM | > 50 µM | 1.56 µM | CC(C)NCC(O)COc1cccc2[nH]ccc12 (stereo not given) [PINDOLOL] | 7.73% |
| 3.13 µM | 12.5 µM | 6.25 µM | 3.13 µM | CCN1CCN(C(=O)N[C@@H](C(=O)N[C@@H]2C(=O)N3[C@@H]2SC(C)(C)[C@@H]3C(=O)O)c2ccccc2)C(=O)C1=O [PIPERACILLIN SODIUM] | 7.66% |
| 6.25 µM (≈ 4.91 µg/mL) | 12.5 µM (≈ 9.82 µg/mL) | 25 µM (≈ 19.6 µg/mL) | 12.5 µM | CO[C@H]1/C=C/O[C@@]2(C)Oc3c(C)c(O)c4c(O)c(c5c(nc6cc(C)ccn65)c4c3C2=O)NC(=O)/C(C)=C\C=C\[C@H](C)[C@H](O)[C@@H](C)[C@@H](O)[C@@H](C)[C@H](OC(C)=O)[C@@H]1C [RIFAXIMIN] | 6.48% |
| 6.25 µM | 1.56 µM | ≤ 0.78 µM | ≤ 0.78 µM | CN1CCN(c2c(F)cc3c(=O)c(C(=O)O)cn4c3c2SCC4)CC1 [RUFLOXACIN HYDROCHLORIDE] | 13.3% |
| > 50 µM | > 50 µM | > 50 µM | 25 µM | C[n+]1cc2c3c(ccc2c2ccc4cc5c(cc4c21)OCO5)OCO3 [SANGUINARINE SULFATE] | 34.2% |
| ≤ 0.78 µM | ≤ 0.78 µM | ≤ 0.78 µM | ≤ 0.78 µM | O=C(O)c1cn(-c2ccc(F)cc2)c2cc(N3CCNCC3)c(F)cc2c1=O [SARAFLOXACIN HYDROCHLORIDE] | 21.5% |
| > 50 µM | > 50 µM | > 50 µM | > 50 µM | CN[C@H]1CC[C@@H](c2ccc(Cl)c(Cl)c2)c2ccccc21 [SERTRALINE HYDROCHLORIDE] | 22.7% |
| ≤ 0.78 µM | 12.5 µM | 3.13 µM | 1.56 µM | CN(C)[C@@H]1C(O)=C(C(N)=O)C(=O)[C@@]2(O)C(O)=C3C(=O)c4c(O)cccc4[C@@](C)(O)[C@H]3C[C@@H]12 [TETRACYCLINE HYDROCHLORIDE] | 7.01% |
| 3.13 µM (≈ 0.909 µg/mL) | ≤ 0.78 µM | ≤ 0.78 µM | ≤ 0.78 µM | COc1cc(Cc2cnc(N)nc2N)cc(OC)c1OC [TRIMETHOPRIM] | 19.9% |
| > 50 µM | > 50 µM | > 50 µM | > 50 µM | CCCCC(=O)N(Cc1ccc(-c2ccccc2-c2nnn[nH]2)cc1)[C@H](C(=O)O)C(C)C [VALSARTAN] | 6.04% |

Further lines, the compound ahead of its results:

| SMILES | MIC ([1]; LPM pH 5.8) | MIC ([1]; MHB) | MIC ([1]; MOPS glucose minimal medium) | intracellular MIC [2] | cytotoxicity [3] |
| --- | --- | --- | --- | --- | --- |
| CC1COc2c(N3CCN(C)CC3)c(F)cc3c(=O)c(C(=O)O)cn1c23 (stereo not given) [OFLOXACIN] | ≤ 0.78 µM | ≤ 0.78 µM | ≤ 0.78 µM | 1.56 µM | 6.6% |
| C[C@@H]1CN(c2c(F)c(F)c3c(=O)c(C(=O)O)cn(C4CC4)c3c2F)C[C@H](C)N1 [ORBIFLOXACIN] | 3.13 µM (≈ 1.24 µg/mL) | 3.13 µM (≈ 1.24 µg/mL) | ≤ 0.78 µM | ≤ 0.78 µM | 15.3% |
| CCn1cc(C(=O)O)c(=O)c2cc3c(cc21)OCO3 [OXOLINIC ACID] | 1.56 µM (≈ 0.408 µg/mL) | 3.13 µM (≈ 0.818 µg/mL) | ≤ 0.78 µM | 1.56 µM | 6.86% |
| O=C(O)CN(CCN(CC(=O)O)CC(=O)O)CCN(CC(=O)O)CC(=O)O [PENTETIC ACID] | ≤ 0.78 µM | > 50 µM | > 50 µM | 1.56 µM | 7.12% |
| CC(=O)[O][Hg][c]1ccccc1 [PHENYLMERCURIC ACETATE] | ≤ 0.78 µM | ≤ 0.78 µM | ≤ 0.78 µM | ≤ 0.78 µM | 22.2% |
| CNC(=O)Oc1ccc2c(c1)[C@]1(C)CCN(C)[C@@H]1N2C [PHYSOSTIGMINE SALICYLATE] | 12.5 µM (≈ 3.44 µg/mL) | > 50 µM | > 50 µM | ≤ 0.78 µM | 7.34% |
| CC[C@@H]1C(=O)OC[C@@H]1Cc1cncn1C [PILOCARPINE NITRATE] | > 50 µM | > 50 µM | > 50 µM | ≤ 0.78 µM | 7.24% |
| Cc1cc(CC(C)CC(C)(C)C)n(O)c(=O)c1 (stereo not given) [PIROCTONE OLAMINE] | ≤ 0.78 µM | ≤ 0.78 µM | ≤ 0.78 µM | ≤ 0.78 µM | 20.8% |
| Cc1oc(=O)oc1CN1CCN(c2cc3c(cc2F)c(=O)c(C(=O)O)c2n3C(C)S2)CC1 (stereo not given) [PRULIFLOXACIN] | ≤ 0.78 µM | ≤ 0.78 µM | ≤ 0.78 µM | ≤ 0.78 µM | 13.2% |
| CN(C)C(=O)Oc1ccc[n+](C)c1 [PYRIDOSTIGMINE BROMIDE] | > 50 µM | > 50 µM | > 50 µM | > 50 µM | 6.09% |
| [O-][n+]1ccccc1[S-].[O-][n+]1ccccc1[S-].[Zn+2] [PYRITHIONE ZINC] | ≤ 0.78 µM | 3.13 µM | 3.13 µM | 3.13 µM | 84.4% |
| CO[C@H]1/C=C/O[C@@]2(C)Oc3c(C)c(O)c4c(O)c(c(/C=N/N5CCN(C)CC5)c(O)c4c3C2=O)NC(=O)/C(C)=C\C=C\[C@H](C)[C@H](O)[C@@H](C)[C@@H](O)[C@@H](C)[C@H](OC(C)=O)[C@@H]1C [RIFAMPIN] | 3.13 µM (≈ 2.58 µg/mL) | 50 µM (≈ 41.1 µg/mL) | 25 µM (≈ 20.6 µg/mL) | ≤ 0.78 µM | 8.58% |
| C[C@@H]1CN(c2c(F)c(N)c3c(=O)c(C(=O)O)cn(C4CC4)c3c2F)C[C@H](C)N1 [SPARFLOXACIN] | ≤ 0.78 µM | ≤ 0.78 µM | ≤ 0.78 µM | ≤ 0.78 µM | 16.6% |
| O=C(CCCN1CCC2(CC1)C(=O)NCN2c1ccccc1)c1ccc(F)cc1 [SPIPERONE] | > 50 µM | > 50 µM | > 50 µM | > 50 µM | 20.9% |
| OC[C@H]1O[C@H](O[C@]2(CCl)O[C@H](CCl)[C@@H](O)[C@@H]2O)[C@H](O)[C@@H](O)[C@H]1Cl [SUCRALOSE] | > 50 µM | ≤ 0.78 µM | 6.25 µM (≈ 2.49 µg/mL) | ≤ 0.78 µM | 15% |
| CCCCCCCCNC(C)C(O)c1ccc(SC(C)C)cc1 (stereo not given) [SULOCTIDIL] | 50 µM (≈ 16.9 µg/mL) | > 50 µM | > 50 µM | 1.56 µM | 33.3% |
| CC[C@H]1OC(=O)[C@H](C)C(=O)[C@H](C)[C@@H](O[C@@H]2O[C@H](C)C[C@H](N(C)C)[C@H]2O)[C@](C)(OC)C[C@@H](C)C(=O)[C@H](C)[C@H]2N(CCCCn3cnc(-c4cccnc4)c3)C(=O)O[C@]12C [TELITHROMYCIN] | > 50 µM | 12.5 µM (≈ 10.2 µg/mL) | 12.5 µM (≈ 10.2 µg/mL) | ≤ 0.78 µM | 20.8% |
| C[CH2][Hg][S]c1ccccc1C(=O)[O-].[Na+] [THIMEROSAL] | ≤ 0.78 µM | ≤ 0.78 µM | ≤ 0.78 µM | ≤ 0.78 µM | 76.7% |
| Oc1cc(Cl)ccc1Oc1ccc(Cl)cc1Cl [TRICLOSAN] | ≤ 0.78 µM | ≤ 0.78 µM | ≤ 0.78 µM | 1.56 µM | 23.5% |
| O=C(O)CN(CCN(CC(=O)O)CC(=O)O)CC(=O)O.[Na+].[Na+].[Na+] [TRISODIUM ETHYLENEDIAMINE TETRACETATE] | 1.56 µM | > 50 µM | > 50 µM | ≤ 0.78 µM | 8.27% |
